Eleven molecules from patent US8017769B2, “Colorless water-soluble organic luminophores and intermediates thereof” (priority 2005, dated 2011) can be followed below.

The conditions of data set [1]: result in words.
The conditions of data set [2]: colourless aqueous solution.

Regarding `O=S(=O)([O-])c1ccc(Nc2nc(Cl)nc(Cl)n2)c(-c2nc3ccccc3s2)c1.[Na+]` [Compound II, Sodium salt of 4-(4,6-dichloro-1,3,5-triazin-2-ylamino)-3-(benzo[d]thiazol-2-yl)benzenesulfonic acid], the solubility in water entry in data set [1] is reported as “not soluble in water”. Turning to `O=S(=O)([O-])c1cccc(Nc2nc(Cl)nc(Nc3ccc(S(=O)(=O)[O-])cc3-c3nc4ccccc4s3)n2)c1.[Na+].[Na+]` [Compound III, Disodium salt of 4-[4-Chloro-6-(3-sulfophenylamino)-1,3,5-triazin-2-ylamino]-3-(benzo[d]thiazol-2-yl)benzenesulfonic acid], the solubility in water entry in data set [1] is “highly soluble in water”. This molecule also registered a fluorescence wavelength maximum in data set [2] of 550 nm.

As for `O=C([O-])CN(CC(=O)[O-])c1nc(Nc2ccc(S(=O)(=O)[O-])cc2-c2nc3ccccc3s2)nc(N(CC(=O)[O-])CC(=O)[O-])n1.[K+].[K+].[K+].[K+].[K+]` [Compound IV, Pentapotassium salt of 4-{4,6-bis-[di(carboxymethyl)amino]-1,3,5-triazin-2-ylamino}-3-(benzo[d]thiazol-2-yl)benzenesulfonic acid], in data set [1], the solubility in water result is listed as “highly soluble in water”. The same molecule gave a fluorescence wavelength maximum in data set [2] of 570 nm. As for `O=S(=O)([O-])c1cccc(Nc2nc(Nc3ccc(S(=O)(=O)[O-])cc3-c3nc4ccccc4s3)nc(N3CCOCC3)n2)c1.[Na+].[Na+]` [Compound IX, Disodium salt of 4-[4-(3-sulfophenylamino)-6-morpholino-1,3,5-triazin-2-ylamino]-3-(benzo[d]thiazol-2-yl)benzenesulfonic acid], in data set [1], the solubility in water entry is given as “highly soluble in water”. Moreover, the fluorescence wavelength maximum in data set [2] was determined as 565 nm. With `O=S(=O)([O-])c1ccc(Nc2nc(Cl)nc(Nc3ccc(S(=O)(=O)[O-])cc3-c3nc4ccccc4s3)n2)c(-c2nc3ccccc3s2)c1.[Na+].[Na+]` [Compound V, Disodium salt of 4-{4-[2-(benzo[d]thiazol-2-yl)-4-sulfophenylamino]-6-chloro-1,3,5-triazin-2-ylamino}-3-(benzo[d]thiazol-2-yl)benzenesulfonic acid], the solubility in water result in data set [1] is “poorly soluble in water”. As for `O=S(=O)([O-])c1ccc(Nc2nc(Nc3ccc(S(=O)(=O)[O-])cc3-c3nc4ccccc4s3)nc(N3CCOCC3)n2)c(-c2nc3ccccc3s2)c1.[Na+].[Na+]` [Compound VI, Disodium salt of 4-{4-[2-(benzo[d]thiazol-2-yl)-4-sulfophenylamino]-6-morpholino-1,3,5-triazin-2-ylamino}-3-(benzo[d]thiazol-2-yl)benzenesulfonic acid], the solubility in water entry in data set [1] is on record as “highly soluble in water”. For the same molecule, the fluorescence wavelength maximum in data set [2] is 582 nm. For `O=C(Nc1ccc(S(=O)(=O)[O-])cc1-c1nc2ccccc2s1)c1ccccc1S(=O)(=O)[O-].[Na+].[Na+]` [Compound VII, Disodium salt of 4-(2-sulfobenzoylamino)-3-(benzoldlthiazol-2-yl)benzenesulfonic acid] the same measures were “highly soluble in water” and 547 nm. `O=C([O-])CNc1nc(Cl)nc(Nc2ccc(S(=O)(=O)[O-])cc2-c2nc3ccccc3s2)n1.[Na+].[Na+]` [Compound VIII, Disodium salt of 4-(4-carboxymethylamino-6-chloro-1,3,5-triazin-2-ylamino)-3-(benzo[d]thiazol-2-yl)benzenesulfonic acid]: the solubility in water result in data set [1] is on record as “highly soluble in water”. Moreover, in data set [2], the fluorescence wavelength maximum is listed as 548 nm.

In the case of `O=C([O-])CNc1nc(NCC(=O)[O-])nc(Nc2ccc(S(=O)(=O)[O-])cc2-c2nc3ccccc3s2)n1.[Na+].[Na+].[Na+]` [Compound X, Trisodium salt of 4-[4,6-bis(carboxymethylamino)-1,3,5-triazin-2-ylamino]-3-(benzo[d]thiazol-2-yl)benzenesulfonic acid], the solubility in water result in data set [1] is “highly soluble in water”. Moreover, the fluorescence wavelength maximum in data set [2] stood at 565 nm. As to `O=S(=O)([O-])c1cccc(Nc2nc(Cl)nc(Nc3ccc(S(=O)(=O)[O-])cc3-c3nc4ccccc4o3)n2)c1.[Na+].[Na+]` [Compound XIII, Disodium salt of 4-[4-chloro-6-(3-sulfophenylamino)-1,3,5-triazin-2-ylamino]-3-(benzo[d]oxazol-2-yl)benzenesulfonic acid], in data set [1], the solubility in water entry is listed as “highly soluble in water”. For the same molecule, the fluorescence wavelength maximum in data set [2] is recorded as 517 nm.

Regarding `N.N.N.O=C(O)CN(CC(=O)O)c1nc(Cl)nc(Nc2ccc(S(=O)(=O)O)cc2-c2nc3ccccc3o2)n1` [Compound XIV, Triammonium salt of 4-{4-chloro-6-[di(carboxymethyl)amino]-1,3,5-triazin-2-ylamino}-3-(benzo[d]oxazol-2-yl)benzenesulfonic acid], the solubility in water entry in data set [1] is listed as “highly soluble in water”. The molecule also showed a fluorescence wavelength maximum in data set [2] of 517 mm.
